Data reported in the NIST ThermoML archive (doi:10.1021/je5010214).
± gives the expanded uncertainty stated by the source.

Conditions: Liquid, Vibrating tube method

CCCCCCC [heptane]
Conditions | mass density [kg/m3]
303.15 K, 19974 kPa | 693.813 ± 0.88
303.15 K, 21920 kPa | 695.403 ± 0.88
303.15 K, 24992 kPa | 697.736 ± 0.9
303.15 K, 31958 kPa | 702.727 ± 0.93
303.15 K, 32862 kPa | 703.514 ± 0.93
303.15 K, 33112 kPa | 703.9 ± 0.93
303.15 K, 34081 kPa | 704.468 ± 0.94
303.15 K, 34980 kPa | 705.109 ± 0.94
303.15 K, 37951 kPa | 707.216 ± 0.96
303.15 K, 39904 kPa | 708.418 ± 0.97
303.15 K, 42014 kPa | 709.635 ± 0.98
303.15 K, 44896 kPa | 711.236 ± 0.99
303.15 K, 47951 kPa | 713.224 ± 1
303.15 K, 50065 kPa | 714.711 ± 1
303.15 K, 52073 kPa | 715.915 ± 1
303.15 K, 55074 kPa | 717.452 ± 1.1
303.15 K, 57989 kPa | 719.654 ± 1.1
303.15 K, 59979 kPa | 720.537 ± 1.1
303.15 K, 62052 kPa | 721.855 ± 1.1
303.15 K, 64988 kPa | 723.925 ± 1.1
303.15 K, 66030 kPa | 724.328 ± 1.1
303.16 K, 2964.9 kPa | 678.337 ± 0.82
303.16 K, 7045.6 kPa | 682.343 ± 0.83
303.16 K, 8858.2 kPa | 683.448 ± 0.84
303.16 K, 10014 kPa | 684.334 ± 0.84
303.16 K, 18021 kPa | 692.198 ± 0.87
303.16 K, 27933 kPa | 699.906 ± 0.91
303.16 K, 29990 kPa | 701.007 ± 0.92
308.15 K, 105 kPa | 671.006 ± 0.81
308.15 K, 274.3 kPa | 671.143 ± 0.81
308.15 K, 494.1 kPa | 671.318 ± 0.81
308.15 K, 803.3 kPa | 671.687 ± 0.81
308.15 K, 1039.5 kPa | 672.093 ± 0.82
308.15 K, 1916.7 kPa | 672.909 ± 0.82
308.15 K, 2980.7 kPa | 674.097 ± 0.82
308.15 K, 4990.2 kPa | 676.132 ± 0.82
308.15 K, 6964.9 kPa | 678.143 ± 0.83
308.15 K, 8864.3 kPa | 679.887 ± 0.84
308.15 K, 9863.1 kPa | 680.761 ± 0.84
308.15 K, 12009 kPa | 682.857 ± 0.85
308.15 K, 17850 kPa | 687.815 ± 0.87
308.15 K, 19930 kPa | 689.488 ± 0.88
308.15 K, 21988 kPa | 691.177 ± 0.89
308.15 K, 25012 kPa | 693.658 ± 0.9
308.15 K, 27955 kPa | 695.718 ± 0.91
308.15 K, 29906 kPa | 696.905 ± 0.92
308.15 K, 31929 kPa | 698.302 ± 0.93
308.15 K, 32886 kPa | 699.002 ± 0.94
308.15 K, 32941 kPa | 698.96 ± 0.94
308.15 K, 34011 kPa | 700.438 ± 0.94
308.15 K, 37971 kPa | 703.176 ± 0.96
308.15 K, 40011 kPa | 704.309 ± 0.97
308.15 K, 41998 kPa | 705.614 ± 0.98
308.15 K, 45017 kPa | 707.854 ± 1
308.15 K, 48033 kPa | 709.906 ± 1
308.15 K, 50044 kPa | 711.265 ± 1
308.15 K, 51977 kPa | 712.584 ± 1
308.15 K, 54982 kPa | 714.563 ± 1.1
308.15 K, 58009 kPa | 716.265 ± 1.1
308.15 K, 60030 kPa | 717.688 ± 1.1
308.15 K, 61985 kPa | 718.959 ± 1.1
308.15 K, 64980 kPa | 720.569 ± 1.1
308.16 K, 15069 kPa | 685.368 ± 0.86
308.16 K, 34949 kPa | 701.078 ± 0.95
308.16 K, 66088 kPa | 721.543 ± 1.1
313.15 K, 100.8 kPa | 666.87 ± 0.81
313.15 K, 316 kPa | 667.185 ± 0.81
313.15 K, 569.6 kPa | 667.234 ± 0.81
313.15 K, 1088.8 kPa | 668.002 ± 0.82
313.15 K, 2109.7 kPa | 669.053 ± 0.82
313.15 K, 3137 kPa | 670.192 ± 0.82
313.15 K, 5111.8 kPa | 672.198 ± 0.83
313.15 K, 6921.8 kPa | 674.169 ± 0.83
313.15 K, 9210.7 kPa | 676.379 ± 0.84
313.15 K, 10209 kPa | 677.309 ± 0.84
313.15 K, 12020 kPa | 679.079 ± 0.85
313.15 K, 15059 kPa | 681.665 ± 0.86
313.15 K, 17921 kPa | 684.308 ± 0.87
